In the supplement of paper PMC10627819:

How the values were obtained:
[1] = test system: B. subtilis 168; experiment: fitness (endpoint OD595 vs no drug) (fraction); higher = more growth
Summary of the method: (§1)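 With the first reading as background, OD595 was measured every 30 min for 14 h in 384-well plates kept at 37 °C and inoculated at OD595 0.01. TSB, LB Lennox or CY was the medium. Fitness is the optical density at the transition into stationary phase divided by the robust mean of no-drug control wells, with a cap of 1.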

[2] = test system: S. pneumoniae D39V; experiment: as above
Summary of the method: as §1

[3] = test system: B. subtilis 168; experiment: Bliss interaction score (quartile over a dose matrix) (fitness difference); higher = more antagonism (negative = synergy)
Summary of the method: (§2)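 The Bliss score is observed minus expected fitness under the product model, reported as quartiles over technical, biological and donor/recipient replicates. Fitness is the OD595 at entry into stationary phase divided by the plate's robust no-drug mean and capped at 1. Single-drug fitness was inferred from combination data.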

[4] = test system: S. aureus DSM 20231; experiment: as above
Summary of the method: as §2

[5] = test system: S. aureus Newman; experiment: as above
Summary of the method: as §2

[6] = test system: S. pneumoniae D39V; experiment: as above
Summary of the method: as §2
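For Bliss interaction score (quartile over a dose matrix) in this document: first quartile when negative (synergy) and third quartile when positive (antagonism).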

C[C@H]1COc2c(N3CCN(C)CC3)c(F)cc3c(=O)c(C(=O)O)cn1c23 [Levofloxacin] + COc1c(N2C[C@@H]3CCCN[C@@H]3C2)c(F)cc2c(=O)c(C(=O)O)cn(C3CC3)c12 [Moxifloxacin]
[1], first compound 0.001 µg/mL, one replicate
Settings	fitness
partner 0.0312 µg/mL	0.575
partner 0.0625 µg/mL	0.0212
partner 0.125 µg/mL	0

Settings	fitness
[1], first compound 0.002 µg/mL, partner 0.0312 µg/mL	0.0439
[1], first compound 0.002 µg/mL, partner 0.0625 µg/mL	0.0254
[1], first compound 0.002 µg/mL, partner 0.125 µg/mL	0.0489
[1], first compound 0.0039 µg/mL, partner 0.0312 µg/mL	0.0651
[1], first compound 0.0039 µg/mL, partner 0.0625 µg/mL	0.0551
[1], first compound 0.0039 µg/mL, partner 0.125 µg/mL	0.0554
[1], first compound 0.0078 µg/mL, partner 0.0312 µg/mL	0.0472
[1], first compound 0.0078 µg/mL, partner 0.0625 µg/mL	0.0515
[1], first compound 0.0078 µg/mL, partner 0.125 µg/mL	0.0578
[1], first compound 0.0312 µg/mL, partner 2 µg/mL	0.0397
[1], first compound 0.0312 µg/mL, partner 4 µg/mL	0.0257
[1], first compound 0.0312 µg/mL, partner 8 µg/mL	0.0215
[1], first compound 0.0625 µg/mL, partner 2 µg/mL	0.0387
[1], first compound 0.0625 µg/mL, partner 4 µg/mL	0.0417
[1], first compound 0.0625 µg/mL, partner 8 µg/mL	0.0241
[1], first compound 0.125 µg/mL, partner 2 µg/mL	0.0455
[1], first compound 0.125 µg/mL, partner 4 µg/mL	0.0375
[1], first compound 0.125 µg/mL, partner 8 µg/mL	0.0205
[2], first compound 0.1725 µg/mL, partner 0.0037 µg/mL	0.882
[2], first compound 0.1725 µg/mL, partner 0.0075 µg/mL	0.848
[2], first compound 0.1725 µg/mL, partner 0.015 µg/mL	0.887
[2], first compound 0.2 µg/mL, partner 0.005 µg/mL	0.899
[2], first compound 0.2 µg/mL, partner 0.01 µg/mL	0.943
[2], first compound 0.2 µg/mL, partner 0.02 µg/mL	0.857
[2], first compound 0.345 µg/mL, partner 0.0037 µg/mL	0.723
[2], first compound 0.345 µg/mL, partner 0.0075 µg/mL	0.69
[2], first compound 0.345 µg/mL, partner 0.015 µg/mL	0.738
[2], first compound 0.4 µg/mL, partner 0.005 µg/mL	0.842
[2], first compound 0.4 µg/mL, partner 0.01 µg/mL	0.85
[2], first compound 0.4 µg/mL, partner 0.02 µg/mL	0.77
[2], first compound 0.69 µg/mL, partner 0.0037 µg/mL	0.418
[2], first compound 0.69 µg/mL, partner 0.0075 µg/mL	0.391
[2], first compound 0.69 µg/mL, partner 0.015 µg/mL	0.489

Settings	Bliss interaction score
[3]	0.0308
[4]	-0.0852
[5]	-0.201
[6]	-0.0874

C[C@H]1COc2c(N3CCN(C)CC3)c(F)cc3c(=O)c(C(=O)O)cn1c23 [Levofloxacin] + COc1ccc(C[C@H](N)C(=O)N[C@H]2[C@@H](O)[C@H](n3cnc4c(N(C)C)ncnc43)O[C@@H]2CO)cc1 [Puromycin]
fitness, one replicate
Settings	first compound 0.001 µg/mL	first compound 0.002 µg/mL	first compound 0.0039 µg/mL	first compound 0.2 µg/mL	first compound 0.4 µg/mL	first compound 0.8 µg/mL
[1], partner 0.39 µg/mL	0.961	0.909	0.834	–	–	–
[1], partner 0.78 µg/mL	0.949	0.967	0.884	–	–	–
[1], partner 1.56 µg/mL	0.934	0.909	0.868	–	–	–
[2], partner 1 µg/mL	–	–	–	0.828	0.672	0.288
[2], partner 2 µg/mL	–	–	–	0.854	0.741	0.309
[2], partner 4 µg/mL	–	–	–	0.777	0.628	0.205

fitness
Settings	first compound 0.0312 µg/mL	first compound 0.0625 µg/mL	first compound 0.125 µg/mL	first compound 0.1725 µg/mL	first compound 0.345 µg/mL	first compound 0.69 µg/mL
[1], partner 0.39 µg/mL	0.0269	0.0447	0.0177	–	–	–
[1], partner 0.78 µg/mL	0.0422	0.0467	0.0355	–	–	–
[1], partner 1.56 µg/mL	0.0415	0.0483	0.0409	–	–	–
[2], partner 1 µg/mL	–	–	–	0.981	0.919	0.689
[2], partner 2 µg/mL	–	–	–	0.944	0.895	0.661
[2], partner 4 µg/mL	–	–	–	0.796	0.8	0.599

Settings	Bliss interaction score
[3]	-0.0129
[4]	-0.0463
[5]	-0.0822
[6]	0.0705

C[C@H]1COc2c(N3CCN(C)CC3)c(F)cc3c(=O)c(C(=O)O)cn1c23 [Levofloxacin] + C[n+]1ccc(-c2cc[n+](C)cc2)cc1 [Paraquat]
fitness, one replicate
Settings	first compound 0.001 µg/mL	first compound 0.002 µg/mL	first compound 0.0039 µg/mL	first compound 0.2 µg/mL	first compound 0.4 µg/mL	first compound 0.8 µg/mL
[1], partner 1.25 µg/mL	0.91	0.941	0.829	–	–	–
[1], partner 2.5 µg/mL	0.966	0.876	0.823	–	–	–
[1], partner 5 µg/mL	0.889	0.778	0.766	–	–	–
[2], partner 1.5 µg/mL	–	–	–	0.966	0.911	0.615
[2], partner 3 µg/mL	–	–	–	0.983	0.939	0.684
[2], partner 6 µg/mL	–	–	–	0.994	0.952	0.696

fitness
Settings	first compound 0.0312 µg/mL	first compound 0.0625 µg/mL	first compound 0.125 µg/mL	first compound 0.1725 µg/mL	first compound 0.345 µg/mL	first compound 0.69 µg/mL
[1], partner 1.25 µg/mL	0.0392	0.0443	0.0452	–	–	–
[1], partner 2.5 µg/mL	0.0272	0.0296	0.0268	–	–	–
[1], partner 5 µg/mL	0.0508	0.0462	0.0464	–	–	–
[2], partner 1.5 µg/mL	–	–	–	0.977	0.91	0.602
[2], partner 3 µg/mL	–	–	–	0.974	0.919	0.647
[2], partner 6 µg/mL	–	–	–	0.972	0.849	0.569

Settings	Bliss interaction score
[3]	-0.0255
[4]	-0.0517
[5]	-0.0586
[6]	0.0861

C[C@H]1COc2c(N3CCN(C)CC3)c(F)cc3c(=O)c(C(=O)O)cn1c23 [Levofloxacin] + Cc1cc(NS(=O)(=O)c2ccc(N)cc2)no1 [Sulfamethoxazol]
fitness, one replicate
Settings	partner 0.5 µg/mL	partner 1 µg/mL	partner 2 µg/mL	partner 4 µg/mL
[1], first compound 0.001 µg/mL	–	0.98	0.98	0.929
[1], first compound 0.002 µg/mL	0.955	–	–	0.885
[1], first compound 0.0039 µg/mL	0.939	–	–	0.834
[1], first compound 0.0078 µg/mL	0.862	0.782	0.788	–
[2], first compound 0.2 µg/mL	–	0.955	0.902	0.841
[2], first compound 0.4 µg/mL	–	0.854	0.87	0.771
[2], first compound 0.8 µg/mL	–	0.373	0.495	0.487

fitness
Settings	partner 1 µg/mL	partner 2 µg/mL	partner 4 µg/mL
[1], first compound 0.002 µg/mL	0.867	0.881	–
[1], first compound 0.0039 µg/mL	0.831	0.841	–
[1], first compound 0.0312 µg/mL	0.0318	0.0375	0.0268
[1], first compound 0.0625 µg/mL	0.0358	0.0467	0.0289
[1], first compound 0.125 µg/mL	0.0382	0.0353	0.0242
[2], first compound 0.1725 µg/mL	0.935	0.972	0.967
[2], first compound 0.345 µg/mL	0.824	0.827	0.833
[2], first compound 0.69 µg/mL	0.455	0.461	0.498

Settings	Bliss interaction score
[3]	-0.0263
[4]	-0.125
[5]	0.0779
[6]	-0.0634
